Reference: publication PMC2800825 (Biochemistry, 2009)
Substitutions are numbered along the chain they refer to. Where “and” joins values, the source holds several entries; their conditions need not be identical. Equal entries are not always repeated. Where two headings read alike, the source gives them in different places.

What was measured:
[1] = biological target: T1, Thr247Ala mutant E. coli DHOD (Escherichia coli, UniProt P0A7E1, T247A); details: protio-DHO vs 5,5,6-^2H3 DHO, pH 8.5, 4 °C
[2] = biological target: T2, Asn111Ala mutant E. coli DHOD (Escherichia coli, UniProt P0A7E1, N111A); details: protio-DHO vs 5,5,6-^2H3 DHO, pH 8.5, 4 °C
T2 sequence (P0A7E1 whole entry N111A): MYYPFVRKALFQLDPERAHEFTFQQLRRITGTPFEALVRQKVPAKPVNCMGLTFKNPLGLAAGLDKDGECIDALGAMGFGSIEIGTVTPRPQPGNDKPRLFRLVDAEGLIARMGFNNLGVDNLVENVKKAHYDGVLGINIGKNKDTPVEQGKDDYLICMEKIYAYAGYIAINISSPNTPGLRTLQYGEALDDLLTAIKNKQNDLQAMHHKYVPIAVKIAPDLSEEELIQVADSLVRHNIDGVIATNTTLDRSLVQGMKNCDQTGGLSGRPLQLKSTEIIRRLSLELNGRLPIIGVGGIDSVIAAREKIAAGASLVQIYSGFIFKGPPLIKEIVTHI

[3] = biological target: T3, Asn246Ala mutant E. coli DHOD (Escherichia coli, UniProt P0A7E1, N246A); details: protio-DHO vs 5,5,6-^2H3 DHO, pH 8.5, 4 °C
T3 sequence (P0A7E1 whole entry N246A): as the sequence (P0A7E1 whole entry N111A) above, with A111N, N246A counted along it

[4] = biological target: T4, Asn111Asp mutant E. coli DHOD (Escherichia coli, UniProt P0A7E1, N111D); details: protio-DHO vs 5,5,6-^2H3 DHO, pH 8.5, 4 °C
T4 sequence (P0A7E1 whole entry N111D): as the sequence (P0A7E1 whole entry N111A) above, with A111D counted along it

[5] = biological target: T3, Asn246Ala mutant E. coli DHOD; details: pH 8.5, 25 °C
[6] = biological target: T1, Thr247Ala mutant E. coli DHOD; details: pH 8.5, 25 °C
[7] = biological target: T4, Asn111Asp mutant E. coli DHOD; assay: biochemical
[8] = biological target: T5, Thr247Ser mutant E. coli DHOD (Escherichia coli, UniProt P0A7E1, T247S); details: pH 8.5, 25 °C
T5 sequence (P0A7E1 1-336 T247S): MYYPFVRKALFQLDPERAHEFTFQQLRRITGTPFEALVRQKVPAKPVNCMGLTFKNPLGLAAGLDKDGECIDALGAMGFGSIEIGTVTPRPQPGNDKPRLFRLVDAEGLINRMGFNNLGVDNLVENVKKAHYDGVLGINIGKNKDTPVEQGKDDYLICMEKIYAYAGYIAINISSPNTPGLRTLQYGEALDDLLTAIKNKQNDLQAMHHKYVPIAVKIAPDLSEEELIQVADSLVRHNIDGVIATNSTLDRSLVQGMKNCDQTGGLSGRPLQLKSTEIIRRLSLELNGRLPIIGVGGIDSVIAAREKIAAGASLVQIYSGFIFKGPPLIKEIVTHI

[9] = biological target: T6, Asn172Ala mutant E. coli DHOD (Escherichia coli, UniProt P0A7E1, N172A); assay: biochemical
T6 sequence (P0A7E1 1-336 N172A): T5 sequence (P0A7E1 1-336 T247S) with N172A, S247T

[10] = biological target: T7, Asn172Ala/Asn246Ala mutant E. coli DHOD (Escherichia coli, UniProt P0A7E1, N172A/N246A); details: pH 8.5, 25 °C
T7 sequence (P0A7E1 1-336 N172A/N246A): T5 sequence (P0A7E1 1-336 T247S) with N172A, N246A, S247T

[11] = biological target: T7, Asn172Ala/Asn246Ala mutant E. coli DHOD; assay: biochemical
[12] = biological target: T6, Asn172Ala mutant E. coli DHOD; details: pH 8.5, 25 °C
[13] = biological target: T3, Asn246Ala mutant E. coli DHOD; assay: biochemical; details: Kd of OA, Asn246Ala oxidized enzyme, pH 8.5, 25 °C
[14] = biological target: T5, Thr247Ser mutant E. coli DHOD; assay: biochemical
[15] = biological target: T4, Asn111Asp mutant E. coli DHOD; details: pH 8.5, 25 °C
[16] = biological target: T2, Asn111Ala mutant E. coli DHOD; assay: biochemical
[17] = biological target: T8, Asn177Ala mutant E. coli DHOD (Escherichia coli, UniProt P0A7E1, N177A); assay: biochemical
T8 sequence (P0A7E1 whole entry N177A): as the sequence (P0A7E1 whole entry N111A) above, with A111N, N177A counted along it

[18] = biological target: T8, Asn177Ala mutant E. coli DHOD; details: pH 8.5, 25 °C
[19] = biological target: T2, Asn111Ala mutant E. coli DHOD; details: pH 8.5, 25 °C
[20] = biological target: T1, Thr247Ala mutant E. coli DHOD; assay: biochemical
wild-type E. coli DHOD [21] = biological target: T9, wild-type E. coli DHOD (Escherichia coli, UniProt P0A7E1); assay: biochemical
T9 sequence (P0A7E1 1-336): T5 sequence (P0A7E1 1-336 T247S) with S247T

[22] = biological target: T5, Thr247Ser mutant E. coli DHOD; assay: Reductive half-reaction with DHO, anaerobic stopped-flow; format: biochemical
[23] = biological target: T6, Asn172Ala mutant E. coli DHOD; assay: as above; format: biochemical
[24] = biological target: T4, Asn111Asp mutant E. coli DHOD; assay: as above; format: biochemical
[25] = biological target: T3, Asn246Ala mutant E. coli DHOD; assay: as above; format: biochemical
[26] = biological target: T7, Asn172Ala/Asn246Ala mutant E. coli DHOD; format: biochemical; details: pH 8.5, footnote b printed, text says examined at 25°
[27] = biological target: T1, Thr247Ala mutant E. coli DHOD; assay: Reductive half-reaction with DHO, anaerobic stopped-flow; format: biochemical
[28] = biological target: T8, Asn177Ala mutant E. coli DHOD; assay: as above; format: biochemical
wild-type E. coli DHOD [29] = biological target: T9, wild-type E. coli DHOD; details: cited from earlier work
[30] = biological target: T2, Asn111Ala mutant E. coli DHOD; assay: Reductive half-reaction with DHO, anaerobic stopped-flow; format: biochemical

T1 sequence (P0A7E1 whole entry T247A): as the sequence (P0A7E1 whole entry N111A) above, with A111N, T247A counted along it

[2H]C1([2H])C(=O)NC(=O)NC1([2H])C(=O)O (stereo not drawn) [5,5,6-^2H3 DHO]
KIE ^D(kred/Kd) [1]: 6.3 ± 0.4 | KIE ^D(kred/Kd) [2]: 5.9 ± 0.3 | KIE ^D(kred/Kd) [3]: 6.3 ± 0.4 | KIE ^D(kred/Kd) [4]: 5.3 ± 0.2

NC(CO)(CO)CO.O=C(O)c1cc(=O)[nH]c(=O)[nH]1 [OA-Tris salt]
solubility in water: at least 400 mM

O=C(O)c1cc(=O)[nH]c(=O)[nH]1 [OA, orotate]
Kd(mutant)/Kd(Wild-Type) for OA [5]: 150 and 152 | Kd(mutant)/Kd(Wild-Type) for OA [6]: 12 | Kd [7]: > 75000 µM | Kd(mutant)/Kd(Wild-Type) for OA [8]: 1.1 | Kd [9]: 220 ± 9 µM | Kd(mutant)/Kd(Wild-Type) for OA [10]: ~ 14700 | Kd [11]: ~50000 µM | Kd(mutant)/Kd(Wild-Type) for OA [12]: 65 | Kd [13]: 520 µM and 518 µM | Kd [14]: 3.8 ± 0.5 µM | Kd(mutant)/Kd(Wild-Type) for OA [15]: ≫ 22000 | Kd [16]: 47.2 ± 0.2 µM | Kd [17]: 27.5 ± 1.5 µM | Kd(mutant)/Kd(Wild-Type) for OA [18]: 8 | Kd(mutant)/Kd(Wild-Type) for OA [19]: 14 | Kd [20]: 39.3 ± 1.6 µM | Kd (wild-type E. coli DHOD [21]): 3.4 ± 0.8 µM

O=C1C[C@@H](C(=O)O)NC(=O)N1 [DHO, dihydroorotate]
Kd [22]: 45 ± 5 µM | kred (reduction rate constant) ([22]; Thr247Ser, pH 8.5, 4 °C): 58.8 ± 1.1 s⁻¹ | observed rate constant of the final phase, independent of DHO concentration ([22]; Thr247Ser, pH 8.5, 4 °C): ~ 0.02 s^−1 | Kd [23]: 278 ± 9 µM | fold increase in Kd of DHO vs wild-type ([23]; Asn172Ala): ~ 14 fold | kred (reduction rate constant) ([23]; Asn172Ala, pH 8.5, 4 °C): 0.00437 ± 0.0002 s⁻¹ and 0.00437 ± 0.00002 s⁻¹ | fold slower reduction rate constant than wild-type [24]: ~ 450 fold | kred (reduction rate constant) ([24]; pH 8.5, 4 °C, estimated): ~0.1 s⁻¹ | Kd [25]: 47000 µM | fold decrease in reduction rate constant vs wild-type ([25]; Asn246Ala): ~ 570 fold | fold increase in apparent Kd for DHO vs wild-type ([25]; Asn246Ala): ~ 2,000 fold | kred (reduction rate constant) ([25]; Asn246Ala, pH 8.5, 4 °C): 0.081 ± 0.002 s⁻¹ | kred (reduction rate constant) [26]: ~0.002 ^b s^−1 | Kd [27]: 198 ± 16 µM | fold decrease in reduction rate constant vs wild-type ([27]; Thr247Ala): ~ 8 fold | fold increase in Kd of DHO vs wild-type ([27]; Thr247Ala): ~ 10 fold | kred (reduction rate constant) ([27]; Thr247Ala, pH 8.5, 4 °C): 5.52 ± 0.09 s⁻¹ | Kd [28]: 22 ± 2 µM | fold decrease in reduction rate constant vs wild-type ([28]; Asn177Ala): ~ 800 fold | kred (reduction rate constant) ([28]; Asn177Ala, pH 8.5, 4 °C): 0.0586 ± 0.0004 s⁻¹ | kred (reduction rate constant) (wild-type E. coli DHOD [29]; pH 8.5, 4 °C): 46 s⁻¹ | Kd (wild-type E. coli DHOD [29]; read-out: Apparent Kd,DHO, pH 8.5, 4 °C): 20 µM | Kd [30]: 1040 µM | fold decrease in kred vs wild-type ([30]; Asn111Ala): ~ 4600 fold | fold increase in Kd of DHO vs wild-type ([30]; Asn111Ala): ~ 50 fold | kred (reduction rate constant) ([30]; Asn111Ala, pH 8.5, 4 °C): 0.0100 ± 0.0001 s⁻¹
